Assay results published in patent US9296734B2 (AMGEN INC., priority 2013, dated 2016).
Like-named read-outs stand apart in the source and are kept apart here.

Assays:
[1] = system: Aβ40 in conditioned medium of cells stably expressing Amyloid Precursor Protein (APP); assay: In vitro BACE cell-based assay (Aβ40 sandwich ELISA); conditions: Homo sapiens, HEK293, average IC50; HEK cells; read-out: HEK cell assay IC50
Experimental: In Vitro BACE Cell-Based Assay
The cell-based assay measures inhibition or reduction of Aβ40 in conditioned medium of test compound treated cells expressing amyloid precursor protein.
Cells stably expressing Amyloid Precursor Protein (APP) were plated at a density of 40K cells/well in 96 well plates (Costar). The cells were cultivated for 24 hours at 37° C. and 5% CO2 in DMEM supplemented with 10% FBS. The test compounds were then added to cells in 10-point dose response concentrations with the starting concentration being either 100 μM or 10 μM. The compounds were diluted from stock solutions in DMSO and the final DMSO concentration of the test compounds on cells was 0.1%. After 24 h of incubation with the test compounds the supernatant conditioned media was collected and the Aβ 40 levels were determined using a sandwich ELISA. The IC50 of the compound was calculated from the percent of control or percent inhibition of Aβ 40 as a function of the concentration of the test compound.
The sandwich ELISA to detect Aβ 40 was performed in 96 well microtiter plates, which were pre-treated with goat anti-rabbit IgG (Pierce). The capture and detecting antibody pair that were used to detect Aβ 40 from cell supernatants were affinity purified pAb40 (Biosource) and biotinylated 6E10 (Signet Labs Inc.), respectively. The optimal concentration for the pAb40 antibody was 3 μg/ml in Superblock/TBS (Pierce) that was supplemented with 0.05% Tween 20 (Sigma).
Cellular supernatants were incubated with the capture antibody for 3 h at 4° C., followed by 3 wash steps in TBS-tween (0.05%). The detecting antibody incubation was for 2 h at 4° C., again followed by the wash steps as described previously. The final readout of the ELISA is Time-Resolved Fluorescence (counts per minute) using Delfia reagents Streptavidin-Europium and Enhancement solutions (Perkin Elmer) and the Victor 2 multilabel counter (Perkin Elmer).

Cathepsin D (Cat D) = Cathepsin D (Cat D) (Homo sapiens (Human), UniProt P07339); assay: In vitro enzymatic Cathepsin D (Cat D) FRET assay; format: biochemical; conditions: read-out: CatD IC50
Experimental: In Vitro Enzymatic Cathepsin D (Cat D) FRET (Fluorescence Resonance Energy Transfer) Assay
Recombinant Cat D was expressed in CHO cells. The assay buffer for CathepsinD is 0.05 M citrate pH 3.5, 10% DMSO final, 5 mM CHAPS. […] The assays are effectively started by the addition of different FRET substrates (20 nM for Cat D) and the combination is incubated for one hour. The FRET assay is terminated with by addition of Tris buffer, which raises the pH to neutrality, and the fluorescence is determined. The FRET substrate is a peptide with commercially available fluorophore and quencher, on opposite sides of the BACE cleavage site. […] Proteolytic cleavage of the FRET substrate releases quenching of fluorescence (Cat D excitation 500 nm and emission 580 nm).
In addition, the cathepsin D and cathepsin E assays are described in PCT publication WO2011069934.

[2] = average IC50, cathepsin D enzyme assay

Cathepsin D (Cat D), sequence (P07339 65-412, species assumed): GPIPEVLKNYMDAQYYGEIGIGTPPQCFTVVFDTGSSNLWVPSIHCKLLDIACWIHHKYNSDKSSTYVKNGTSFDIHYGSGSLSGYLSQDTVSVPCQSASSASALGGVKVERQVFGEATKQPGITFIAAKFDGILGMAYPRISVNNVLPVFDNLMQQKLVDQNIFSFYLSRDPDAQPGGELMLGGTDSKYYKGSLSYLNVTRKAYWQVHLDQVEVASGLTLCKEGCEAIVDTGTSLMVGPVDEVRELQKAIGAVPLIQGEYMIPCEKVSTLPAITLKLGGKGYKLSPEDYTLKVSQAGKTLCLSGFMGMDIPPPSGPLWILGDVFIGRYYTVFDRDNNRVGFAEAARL

IC50 (Cathepsin D (Cat D); average IC50) | IC50 (Cathepsin D (Cat D); average) | SMILES | also measured
 |  | N#Cc1cnc2c(Nc3ccc(F)c([C@]4(CF)C[C@@H](C(F)(F)F)OC(N)=N4)c3)ncnc2c1 [Example 23, 4-((3-((4S,6S)-2-amino-4-(fluoromethyl)-6-(trifluoromethyl)-5,6-dihydro-4H-1,3-oxazin-4-yl)-4-fluorophenyl)amino)pyrido[3,2-d]pyrimidine-7-carbonitrile] | IC50 [1]: 0.192 µM
 | 194 µM | COc1cnc(C(=O)Nc2cc(F)c(Cl)c([C@]3(C)C[C@@H](C(F)(F)F)OC(N)=N3)c2)cn1 [Example 237, N-(3-((4S,6S)-2-amino-4-methyl-6-(trifluoromethyl)-5,6-dihydro-4H-1,3-oxazin-4-yl)-4-chloro-5-fluorophenyl)-5-methoxypyrazine-2-carboxamide] | 
> 400 µM |  | C[C@@]1(c2nc(NC(=O)c3ncc(C(F)(F)F)cc3Cl)ccc2F)C[C@@H](C(F)(F)F)OC(N)=N1 [Example 81, N-(6-((4S,6S)-2-amino-4-methyl-6-(trifluoromethyl)-5,6-dihydro-4H-1,3-oxazin-4-yl)-5-fluoropyridin-2-yl)-3-chloro-5-(trifluoromethyl)-picolinamide] | 
 |  | C[C@@]1(c2cc(NC(=O)N3CCC(C(F)F)CC3)ccc2F)C[C@@H](C(F)(F)F)OC(N)=N1 [Example 122, N-(3-((4S,6S)-2-amino-4-methyl-6-(trifluoromethyl)-5,6-dihydro-4H-1,3-oxazin-4-yl)-4-fluorophenyl)-4-(difluoromethyl)piperidine-1-carboxamide] | IC50 (Cathepsin D (Cat D); [2]): > 14.8 µM
 | 997 µM | C[C@@]1(c2cc(NC(=O)c3ccc(C(F)F)cn3)cc(F)c2F)C[C@@H](C(F)(F)F)OC(N)=N1 [Example 200, N-(3-((4S,6S)-2-amino-4-methyl-6-(trifluoromethyl)-5,6-dihydro-4H-1,3-oxazin-4-yl)-4,5-difluorophenyl)-5-(difluoromethyl)picolinamide] | 
 | > 400 µM | Cc1cc(OC(F)F)cnc1C(=O)Nc1cc(F)c(F)c([C@]2(C)C[C@@H](C(F)(F)F)OC(N)=N2)c1 [Example 174, N-(3-((4S,6S)-2-amino-4-methyl-6-(trifluoromethyl)-5,6-dihydro-4H-1,3-oxazin-4-yl)-4,5-difluorophenyl)-5-(difluoromethoxy)-3-methylpicolinamide] | 
 |  | NC1=N[C@](CF)(c2cc(NC(=O)c3ccc(Br)cn3)cc(F)c2F)C[C@@H](C(F)(F)F)O1 [Example 157, N-(3-((4S,6S)-2-amino-4-(fluoromethyl)-6-(trifluoromethyl)-5,6-dihydro-4H-1,3-oxazin-4-yl)-4,5-difluorophenyl)-5-bromopicolinamide] | IC50 (Cathepsin D (Cat D); [2]): > 400 µM
54.4 µM |  | NC1=N[C@](CF)(c2cc(Nc3ncnc4cc(Cl)cnc34)ccc2F)C[C@@H](C(F)(F)F)O1 [Example 11, (4S,6S)-4-(5-((7-chloropyrido[3,2-d]pyrimidin-4-yl)amino)-2-fluorophenyl)-4-(fluoromethyl)-6-(trifluoromethyl)-5,6-dihydro-4H-1,3-oxazin-2-amine] | 
 | 605 µM | NC1=N[C@](CF)(c2cc(C#Cc3ccc(OC(F)F)cn3)ccc2F)C[C@@H](C(F)(F)F)O1 [Example 127, (4S,6S)-4-(5-((5-(difluoromethoxy)pyridin-2-yl)ethynyl)-2-fluorophenyl)-4-(fluoromethyl)-6-(trifluoromethyl)-5,6-dihydro-4H-1,3-oxazin-2-amine] | 
3520 µM |  | COc1ccc(C(=O)Nc2cccc([C@]3(CF)C[C@@H](C(F)(F)F)OC(N)=N3)c2)nc1 [Example 145, N-(3-((4S,6S)-2-amino-4-(fluoromethyl)-6-(trifluoromethyl)-5,6-dihydro-4H-1,3-oxazin-4-yl)phenyl)-5-methoxypicolinamide] | 
 | 805 µM | NC1=N[C@](CF)(c2cc(NC(=S)c3ccc(Cl)cn3)ccc2F)C[C@@H](C(F)(F)F)O1 [Example 91, N-(3-((4S,6S)-2-amino-4-(fluoromethyl)-6-(trifluoromethyl)-5,6-dihydro-4H-1,3-oxazin-4-yl)-4-fluorophenyl)-5-chloropyridine-2-carbothioamide] | 
 |  | NC1=N[C@](CF)(c2cc(NC(=O)c3ncc(C(F)(F)F)cc3Cl)ccc2F)C[C@@H](C(F)(F)F)O1 [Example 44, N-(3-((4S,6S)-2-amino-4-(fluoromethyl)-6-(trifluoromethyl)-5,6-dihydro-4H-1,3-oxazin-4-yl)-4-fluorophenyl)-3-chloro-5-(trifluoromethyl)picolinamide] | IC50 (Cathepsin D (Cat D); [2]): > 400 µM
229 µM |  | C[C@@]1(c2nc(Nc3ncc(F)c4cc(C#N)cnc34)ccc2F)C[C@@H](C(F)(F)F)OC(N)=N1 [Example 89, 8-((6-((4S,6S)-2-amino-4-methyl-6-(trifluoromethyl)-5,6-dihydro-4H-1,3-oxazin-4-yl)-5-fluoropyridin-2-yl)amino)-5-fluoro-1,7-naphthyridine-3-carbonitrile] | 
 | 1140 µM | COc1cnc(C(=O)Nc2cc(F)c(F)c([C@]3(C)C[C@@H](C(F)(F)F)OC(N)=N3)c2)c(C)c1 [Example 202, N-(3-((4S,6S)-2-amino-4-methyl-6-(trifluoromethyl)-5,6-dihydro-4H-1,3-oxazin-4-yl)-4,5-difluorophenyl)-5-methoxy-3-methylpicolinamide] | 
 |  | CC#Cc1cncc(-c2ccc(F)c([C@]3(CF)C[C@@H](C(F)(F)F)OC(N)=N3)c2)c1 [Example 104, (4S,6S)-4-(2-fluoro-5-(5-(prop-1-yn-1-yl)pyridin-3-yl)phenyl)-4-(fluoromethyl)-6-(trifluoromethyl)-5,6-dihydro-4H-1,3-oxazin-2-amine] | IC50 (Cathepsin D (Cat D); [2]): 220 µM
 |  | COc1cnc(C(=O)Nc2ccc(F)c([C@]3(C)C[C@@H](C(F)(F)F)OC(N)=N3)n2)c(Cl)c1 [Example 80, N-(6-((4S,6S)-2-amino-4-methyl-6-(trifluoromethyl)-5,6-dihydro-4H-1,3-oxazin-4-yl)-5-fluoropyridin-2-yl)-3-chloro-5-methoxypicolinamide] | IC50 (Cathepsin D (Cat D); [2]): 658 µM
> 400 µM |  | COc1cnc2c(Nc3ccc(F)c([C@]4(CF)C[C@@H](C(F)(F)F)OC(N)=N4)c3)nccc2c1 [Example 12, (4S,6S)-4-(2-fluoro-5-((3-methoxy-1,7-naphthyridin-8-yl)amino)phenyl)-4-(fluoromethyl)-6-(trifluoromethyl)-5,6-dihydro-4H-1,3-oxazin-2-amine] | 
 |  | C[C@@]1(c2cc(NC(=O)N3CCc4ccccc4C3)ccc2F)C[C@@H](C(F)(F)F)OC(N)=N1 [Example 121, N-(3-((4S,6S)-2-amino-4-methyl-6-(trifluoromethyl)-5,6-dihydro-4H-1,3-oxazin-4-yl)-4-fluorophenyl)-3,4-dihydroisoquinoline-2(1H)-carboxamide] | IC50 (Cathepsin D (Cat D); [2]): 3610 µM
> 400 µM |  | CNC(=O)c1ccnc(Oc2ccc(F)c([C@]3(CF)C[C@@H](C(F)(F)F)OC(N)=N3)c2)c1 [Example 96, 2-(3-((4S,6S)-2-amino-4-(fluoromethyl)-6-(trifluoromethyl)-5,6-dihydro-4H-1,3-oxazin-4-yl)-4-fluorophenoxy)-N-methylisonicotinamide] | 
 | 833 µM | Cc1cc(NC(=O)c2ccc(F)cn2)cc([C@]2(CF)C[C@@H](C(F)(F)F)OC(N)=N2)c1F [Example 223, N-(3-((4S,6S)-2-amino-4-(fluoromethyl)-6-(trifluoromethyl)-5,6-dihydro-4H-1,3-oxazin-4-yl)-4-fluoro-5-methylphenyl)-5-fluoropicolinamide] | 
 | > 400 µM | Cc1cc(C(F)F)cnc1C(=O)Nc1cc(C)c(F)c([C@]2(CF)C[C@@H](C(F)(F)F)OC(N)=N2)c1 [Example 216, N-(3-((4S,6S)-2-amino-4-(fluoromethyl)-6-(trifluoromethyl)-5,6-dihydro-4H-1,3-oxazin-4-yl)-4-fluoro-5-methylphenyl)-5-(difluoromethyl)-3-methylpicolinamide] | 
 | 416 µM | Cc1cc(C#N)cnc1C(=O)Nc1cc(Cl)c(F)c([C@]2(C)C[C@@H](C(F)(F)F)OC(N)=N2)c1 [Example 210, N-(3-((4S,6S)-2-amino-4-methyl-6-(trifluoromethyl)-5,6-dihydro-4H-1,3-oxazin-4-yl)-5-chloro-4-fluorophenyl)-5-cyano-3-methylpicolinamide] | 

SMILES | IC50 (Cathepsin D (Cat D); average IC50) | IC50 (Cathepsin D (Cat D); average) | also measured
NC1=N[C@](CF)(c2cc(Oc3ncccc3F)ccc2F)C[C@@H](C(F)(F)F)O1 [Example 94] | 2220 µM |  | 
